Measurements from US20240049707A1, “PESTICIDE COMPOSITIONS OF LICOCHALCONE C” (METABOLIC INSIGHTS LTD., priority 2020, published 2024).

How the values were obtained:
Rhizoctonia solani = assay: Microplate based assay of bioactivity against Rhizoctonia solani; format: cell-based; conditions: 10 μl of 250 ppm solution + 40 μl inoculum, activity grade x repeats x days of activity/252 x 100
Procedure: Diluted in DMSO Licochalcone C was added to microplate wells and mixed with 50 μl of hyphae suspension and growth of the fungus, starting from blended hyphae, was monitored by plate reader and visual inspection. Inoculum Preparation of Rhizoctonia solani Hyphae: The concentration of the suspension should be 4×10^4 CFU/ml (diluted 10-fold concentration should be 4000 CFU/ml). Dilute the inoculum stock 1:20 in PDBC—1 ml in 20 ml, or calculate the dilution needed, to prepare final concentration of 2000 CFU/ml. The amount in each well should be about 100 CFU. […] Screening of Plates: • 1) Screen plate at […]: 3d, 7d, 14d and 21d following the assay start • 2) Calculate the difference of absorbance between each screen and the read at zero time • 3) Calculate the percentage of growth inhibition of each well at each time point. […]

Pythium aphanidermatum = assay: Microplate based screening of bioactivity against Pythium aphanidermatum; format: cell-based; conditions: 10 μl of 250 ppm solution + 40 μl inoculum, activity grade x repeats x days of activity/252 x 100
Procedure: Grow Pythium aphanidermatum on SCH in 90 mm petri plates to get sporulating hyphae. Each plate will produce 50 ml of zoospores suspension which will be enough for bioactivity screening for ten 96-well plates.
Add the same volume (as the suspension) sterile fridge cold 2:PDBC to get 500-2000 spores/ml inoculum. This dilution will result in the amount of 25-100 zoospores in each well. […]
Screening of Plates: • 1) Read out the plate at […]: 3d, 7d, 14d and 21d following the assay start • 2) Calculate the difference of absorbance between each readout and the readout at zero time • 3) Calculate the percentage of growth inhibition of each well at each time point. […]

Question: Which results are given for `COc1c(/C=C/C(=O)c2ccc(O)cc2)ccc(O)c1CC=C(C)C` [Licochalcone C, (E)-3-[4-hydroxy-2-methoxy-3-(3-methylbut-2-enyl)phenyl]-1-(4-hydroxyphenyl)prop-2-en-1-one]?
Answer: Relative Activity value (%) (Rhizoctonia solani): 100%; Relative Activity value (%) (Pythium aphanidermatum): 100%
